According to patent US20050228041A1, “Protective and therapeutic uses for tocotrienols” (priority 2003, published 2005):

Key:
[1] = tested on: primary rat immature cortical neurons; assay: Neurotoxin-induced loss of viability of primary immature cortical neurons (LDH leakage); assay type: cell-based; details: glutamate 10 mM, 24 h; for protection against loss of neuronal viability by neurotoxins: L-homocysteic acid 1 mM, BSO 0.15 mM, BSO + arachidonic acid 0.05 mM, α-tocotrienol (nM) 5 min before
Description: Referring to FIG. 1, primary rat immature cortical neurons (A-C) or HT4 (D) were either treated or not with α-tocotrienol (as indicated) for 5 min and challenged with either glutamate (10 mM; A); L-homocysteic acid (1 mM; B); or buthionine sulfoximine (0.15 mM; BSO) for 24 h. […] Cells were counted at 12, 24 and 36 h after glutamate challenge.
First, we tested for the involvement of 12-LOX in the execution of glutamate-induced death in our model. We started by using the 12-LOX specific inhibitor baicalein or BL15. Referring to FIG. 3, HT4 neurons (A) were either treated or not with a-tocotrienol (250 nM) or […] (2.5 μM, 12-lipoxygenase inhibitor) for 5 min and then challenged with glutamate (10 mM). Cell viability was determined using propidium iodide (PI) exclusion flow cytometry assay. PI−=live; PI+=dead. Rat primary immature cortical neurons (B-D) were either treated or not with α-tocotrienol (100 nM) or BL15 (2.5 μM) for 5 min and challenged either with glutamate (10 mM; B); L-homocysteic acid (1 mM; C) or buthionine sulfoximine (0.15 mM; BSO; D) for 24 h. Arachidonic acid, 50 μM for 24h. BL15, Baicalein 5,6,7-trihydroxy-flavone.
Cell culture. Mouse hippocampal HT4 cells, were grown in Dulbecco's Modified Eagle Medium supplemented with 10% fetal calf serum, penicillin (100 U/ml) and streptomycin (100 μg/ml) at 37° C. in a humidified atmosphere containing 95% air and 5% CO2. HT4 cells were provided by Dr. D. E. Koshland Jr. (University of California at Berkeley) (Sen et al., 2000). Primary cortical neurons. Cells were isolated from the cerebral cortex of rat feti (Sprague Dawley; day 17 of gestation) or mouse feti (C57BL/6 mice, day 14 of gestation) as described (Murphy et al., 1990). For 12-LOX knockout studies, neurons were isolated from the feti of B6.129S2-Alox15^tm1Fun (Jackson Laboratory, […].). After isolation from the brain, cells were counted and seeded in culture plates at a density of 2-3×10^6 cells per 35 mm plate (Murphy et al., 1990). Cells were grown in Minimal Essential Medium (MEM) supplemented with 10% heat-inactivated fetal bovine serum, 40 μM cystine and antibiotics (100 μg/ml streptomycin, 100 units/ml penicillin, 0.25 μg/ml amphotericin). Cultures were maintained at 37° C. in 5% CO2 and 95% air in a humidified incubator. All experiments were carried out 24 h after plating.
Treatment with neurotoxic agents. Immediately before experiments, culture media was replaced with fresh medium supplemented with serum and antibiotics. Glutamate (10 mM) was added to the media as aqueous solution (Han et al., 1997a; Sen et al., 2000; Tirosh et al., 2000). […] Other agents used to induce death in neuronal cells have been described in the pertinent figure legends.
Vitamin E treatment. Stock solutions (10^3X of working concentration) of α-tocotrienol was prepared in ethanol. […]
Determination of cell viability. Viability of HT4 cells was determined using propidium iodide exclusion assay using the flow cytometer as described by us previously (Sen et al., 2000; Tirosh et al., 2000). Because primary neuronal cultures tend to aggregate during flow cytometry, the viability of these cells was assessed by measuring lactate dehydrogenase (LDH) leakage (Han et al., 1997a) from cells to media 24 h following glutamate treatment using in vitro toxicology assay kit from Sigma Chemical Co. (St. Louis, Mo., USA). […]

[2] = molecular target: T1, Purified 12-lipoxygenase (porcine leukocyte) (Sus scrofa, UniProt P16469); assay: Pure 12-lipoxygenase activity with [14C]-arachidonic acid (thin layer chromatography); assay type: biochemical; details: 10 units enzyme, [14C]-arachidonic acid 25 μM, 30 min, 37° C.
T1 construct: purchased Biomol Research labs Inc, Plymouth Meeting, Pa
T1 sequence (P16469 1-663): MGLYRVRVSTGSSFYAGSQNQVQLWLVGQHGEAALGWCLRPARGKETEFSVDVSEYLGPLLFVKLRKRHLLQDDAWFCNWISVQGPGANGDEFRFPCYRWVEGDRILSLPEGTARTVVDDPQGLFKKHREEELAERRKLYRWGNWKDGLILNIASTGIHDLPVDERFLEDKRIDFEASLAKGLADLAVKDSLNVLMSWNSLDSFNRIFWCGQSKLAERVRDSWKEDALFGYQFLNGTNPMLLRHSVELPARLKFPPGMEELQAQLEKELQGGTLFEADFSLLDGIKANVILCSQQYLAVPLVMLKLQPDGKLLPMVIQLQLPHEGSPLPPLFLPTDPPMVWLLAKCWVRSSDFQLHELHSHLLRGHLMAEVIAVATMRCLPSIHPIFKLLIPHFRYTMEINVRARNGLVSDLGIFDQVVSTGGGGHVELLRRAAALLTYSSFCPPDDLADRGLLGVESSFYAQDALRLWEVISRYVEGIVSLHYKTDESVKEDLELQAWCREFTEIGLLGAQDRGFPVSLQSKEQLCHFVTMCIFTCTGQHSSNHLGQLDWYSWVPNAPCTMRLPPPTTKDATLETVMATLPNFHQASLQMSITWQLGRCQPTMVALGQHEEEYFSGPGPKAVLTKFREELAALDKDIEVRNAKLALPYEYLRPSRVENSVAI
Description: Referring to FIG. 6, HT4 cells were subjected to glutamate treatment for 2 h. […] Purified 12-lipoxygenase (porcine leukocyte; 10 units) was incubated with [^14C]-arachidonic acid (25 μM) for 30 min at 37° C. Arachidonic acid and 12-HETE were resolved using thin layer chromatography as described in Materials & Methods We observed that in HT4 cells, treatment with glutamate mobilized cytosolic 12-LOX protein to the cell membrane (FIGS. 6A&B).
12-Lipoxygenase activity. To investigate whether tocotrienol directly affect the activity of 12-LOX (12-LOX), 10 units of 12-LOX (Biomol Research labs Inc, Plymouth Meeting, Pa.) was incubated at room temperature for 15 min with or without tocotrienol as indicated in the respective figure legend. The reaction mixture contained 50 mM Tris HCl, pH 7.4 and 1 mM EDTA. After 15 min, the reaction was initiated by adding 25 μM [1-^14C]-arachidonic acid per sample. Samples were kept at 37° C. for 30 minutes. The reaction was terminated by adding 200 μl of ice-cold stop solution containing diethyl ether, methanol and 1 M citric acid at a ratio of 30:4:1 by volume. After mixing, samples were centrifuged and the ethereal extracts were spotted on a silica gel thin layer plate. […] Distribution of radioactivity of the substrate and products on the plate were quantified using a imaging analyzer.

For `CC(C)=CCC/C(C)=C/CC/C(C)=C/CC[C@]1(C)CCc2c(C)c(O)c(C)c(C)c2O1` [α-tocotrienol], which “protection against glutamate-induced death of primary neurons” value ([1]; α-tocotrienol 100 nM or BL15 2.5 μM 5 min before) is on record?
Its value is “protected neurons against glutamate challenge”.

And the “protection against loss of neuronal viability by neurotoxins” value [1]?
Its value is “protects”.

What about the “protection against loss of neuronal viability by neurotoxins” value ([1]; listed as α-Tocotrienol) of the same compound?
The value was “total protection”.

And the “inhibition of pure 12-lipoxygenase activity” value [2]?
The value was “dose-dependently inhibited”.
